Experimental data published in patent US20230132973A1, “DIHYDRO-SPIRO[INDOLINE-3:1'-iSOQUINOLIN]-2-ONES AS ANTIMALARIAL AGENTS” (The University of Buea, priority 2020, published 2023).

Test system: P. chabaudi-infected mice
Experiment: Peter's four-day suppressive test (chemosuppressive activity)
Format: in vivo, Swiss albino mice
Experimental: Following the encouraging in vitro antiplasmodial activities and cytotoxicity profiles reported above, as well as the ADMET properties of the primary and secondary hits identified in this study, studies were carried out to assess the in vivo efficacy of these compounds in laboratory mice. Chemosuppressive potentials were assessed using the Peter's four-day test whereas the ability of each compound to cure an established plasmodial infection was determined using the Rane's test. To assess the in vivo chemosuppressive potential of the compounds, groups of P. chabaudi-infected mice were treated by ip injection for 3 days following infection using fixed doses of 0.03, 0.3, 3, 10, or 30 mg/kg for each compound. The percent suppression of parasite growth in treated groups was calculated relative to the control group and the growth inhibition curves plotted.
Eight-week old male Swiss albino mice weighing approximately 23±3 g were housed in cages and maintained in a well-ventilated room under standard environmental conditions of temperature at 22-24° C., under a 12 h dark-light cycle, with food and water provided ad libitum.
The animals were allowed one week acclimation before commencement of the study. Three (3) mice were infected with stocked blood containing Plasmodium chabaudi parasites and used as donors. In brief, frozen blood containing the sulfadoxine/pyrimethamine resistant P. c. chabaudi (AS(50S/P) parasites was thawed and about 200 μL parasites were injected intra-peritoneally (i.p) into each of the three mice and parasitemia monitored through blood smear until a 20% threshold was reached. These infected animals then served as donors to the experimental animals. Ethical approval for the study was obtained from the University of Douala Institutional Review Board (N^oIEC-UD/1146/09/2017/A).
In vivo efficacies were conducted following a modification of the Peter's four-day suppressive test as previously described (Lee et al., 2014, Tarkang et al., 2014). Briefly, following parasite passage in donor mice, the mice were euthanized using diethyl ether and P. c. chabaudi infected blood was obtained by cardiac puncture and placed into heparinized tubes. The blood was then diluted with phosphate buffered saline (PBS) and immediately used to infect the experimental mice. Mice were randomly divided into seven (7) groups of 3 animals and each mouse was injected with 1×10^7 infected erythrocytes intraperitoneally (Day 0). The mice were kept for 24 hours to establish infection and Giemsa thin blood smears were prepared to quantify parasites (Day 1). Thereafter, groups 1, 2, 3, 4 and 5 were treated with compounds dissolved in 1×PBS, intraperitoneally at dosages of 30, 10, 3, 0.3 and 0.03 mg/kg body weight, respectively, while groups 6 and 7 were treated with vehicle or chloroquine at 10 mg/kg, respectively for three consecutive days (Day 1-Day 3). Twenty-four (24) and ninety-six (96) hours post-infection, thin blood smears were prepared from each animal with blood obtained from the tail vein, fixed in methanol and stained with 10% Giemsa.
Parasitemia was determined by light microscopy using a 100× objective lens and the following equation: […]
Average percentage chemosuppression was calculated as
Where A is mean parasitemia in negative control and B is mean parasitemia in test group

For `COc1cc2c(cc1OC)C1(NCC2)C(=O)Nc2ccc(Cl)cc21` (centres unmarked) [Compound 8b], the suppression of parasitemia (3.0 mg/kg ip) was 98% and the “suppressive ED50” value (ip, 3 days, P. chabaudi-infected mice) was 0.25 mg/kg.
